# According to patent publication US12285012B2, “Compositions comprising pyridine carboxylate herbicides with acetolactate synthase (ALS) inhibitor herbicides” (Corteva Agriscience LLC, priority 2018, dated 2025):
# “And” between values parts separate entries of the source, which are not always exact repeats. Equal values may be shown once.
# Assays:
# [1] = system: spring rape (BRSNN, Brassica napus); assay: Greenhouse postemergence herbicidal effect; assay type: in vivo
# Method in brief: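 Injury was rated visually after 20-22 d on a 0 (none) to 100% (complete kill) scale relative to solvent-sprayed controls, with sub-irrigation to avoid wash-off. Rates were given in g ae/ha or g ai/ha depending on component.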
# [2] = system: winter wheat (TRZAW); assay: Greenhouse postemergence crop phytotoxicity; assay type: in vivo, Triticum aestivum
# From the text: (§1) Seeds of the desired test plant species were planted in a 90:10% v/v (volume/volume) mixture of PRO-MIX® BX (Premier Tech Horticulture, Quakertown, PA, USA) and PROFILE® GREENS GRADE™ (Profile Products LLC, Buffalo Grove, IL, USA) planting mixture, which typically has a pH of 5.2 to 6.2 and an organic matter content of at least 50 percent, in plastic pots with a surface area of 103.2 square centimeters (cm^2). In some aspects, to ensure good germination and healthy plants, a fungicide treatment and/or other chemical or physical treatment was applied. The plants were grown for 7-36 days (d) in a greenhouse with an approximate 14-hour (h) photo-period which was maintained at about 23° C. during the day and 22° C. during the night. Nutrients and water were added on a regular basis and supplemental lighting was provided with overhead metal halide 1000-Watt lamps as necessary. The plants were employed for testing when they reached the second or third true leaf stage.
# (§2) Emulsifiable concentrates of each of each pyridine carboxylate herbicide (Compound A or Compound B) were prepared at 100 grams acid equivalent per liter (g ae/L). The emulsifiable concentrates also included a safener, cloquintocet-mexyl, at 120 grams active ingredient per liter (g ai/L), unless otherwise noted below. An aliquot of each emulsifiable concentrate was placed in a 25 mL glass vial and diluted with an aqueous mixture of 1.25% (v/v) ACTIROB® B esterified rapeseed oil (Bayer Crop Science, Research Triangle Park, NC, USA) or MSO® Concentrate with LECI-TECH® methylated soybean oil (Loveland Products, Loveland, CO, USA) to obtain concentrated stock solutions at the highest application rate for each herbicide, based upon a 12 milliliter (mL) application volume at a rate of 187 liters per hectare (L/ha). The concentrated stock solutions were further diluted with an aqueous mixture of 1.25% v/v ACTIROB® B or MSO® Concentrate with LECI-TECH® to obtain stock solutions at reduced application rates for each herbicide. Spray solutions of the herbicide combinations (Compound A or Compound B plus ALS herbicide) were prepared by adding weighed amounts or aliquots of the ALS herbicides to the stock solutions of Compound A or Compound B to form 12-mL spray solutions in two- or three-way combinations. […]
# (§3) The treated plants and control plants were placed in a greenhouse as described above and watered by sub-irrigation to prevent wash-off of the test compounds. After 20-22 d, the condition of the test plants as compared with that of the control plants was determined visually and scored on a scale of 0 to 100 percent where 0 corresponds to no injury and 100 corresponds to complete kill.
# [3] = system: winter barley (HORVW); assay: Greenhouse postemergence crop phytotoxicity; assay type: in vivo, Hordeum vulgare
# From the text: as §1, §2, §3
# [4] = system: broad-leaf dock (RUMOB, Rumex obtusifolius); assay: Greenhouse postemergence herbicidal effect; assay type: in vivo; conditions: for Obs % visual injury: RUMOB
# Method in brief: (§4)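 Plants at second or third true leaf stage, greenhouse-grown (~14 h photoperiod, about 23/22° C), sprayed at 187 L/ha with pyridine carboxylate herbicide (g ae/ha; with cloquintocet-mexyl safener unless noted) alone or plus ALS herbicide (g ai/ha) in 1.25% v/v oil adjuvant. Visual injury, 0 to 100% versus solvent-blank controls, after 20-22 d.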
# [5] = system: broadleaf signalgrass (BRAPP, Brachiaria platyphylla); assay: Greenhouse postemergence herbicidal effect; assay type: in vivo; conditions: Compound A 10 g/ha
# Method in brief: as §4
# [6] = system: common sunflower (HELAN, Helianthus annuus); assay: Greenhouse postemergence herbicidal effect; assay type: in vivo
# Method in brief: as §4
# [7] = system: grain sorghum (SORVU, Sorghum vulgare); assay: Greenhouse postemergence herbicidal effect; assay type: in vivo; conditions: Compound A 10 g/ha
# Method in brief: as §4
# [8] = system: ivyleaf morningglory (IPOHE, Ipomoea hederacea); assay: Greenhouse postemergence herbicidal effect; assay type: in vivo
# Method in brief: as §4
# [9] = system: large crabgrass (DIGSA, Digitaria sanguinalis); assay: Greenhouse postemergence herbicidal effect; assay type: in vivo; conditions: for Obs % visual injury: DIGSA
# Method in brief: as §4
# [10] = system: soybean (GLXMA, Glycine max); assay: Greenhouse postemergence herbicidal effect; assay type: in vivo
# Method in brief: as §4
# [11] = system: velvetleaf (ABUTH, Abutilon theophrasti); assay: Greenhouse postemergence herbicidal effect; assay type: in vivo
# Method in brief: as §4
# [12] = system: maize (ZEAMX, Zea mays); assay: Greenhouse postemergence crop phytotoxicity; assay type: in vivo; conditions: Compound A 10 g/ha; safener mefenpyr-diethyl
# Protocol: as §1, with “In some aspects, to ensure good germination and healthy plants, a fungicide treatment and/or other chemical or physical treatment was applied.” left out
# as §2, §3
# [13] = system: rice (ORYSA, Oryza sativa); assay: Greenhouse postemergence crop phytotoxicity; assay type: in vivo; conditions: Compound A 10 g/ha; safener mefenpyr-diethyl
# Protocol: as §1, with “In some aspects, to ensure good germination and healthy plants, a fungicide treatment and/or other chemical or physical treatment was applied.” left out
# as §2, §3
# [14] = Compound A 10 g/ha, safener mefenpyr-diethyl
smiles,measurement,setting,value
"N#CCOC(=O)c1nc(-c2ccc3cc[nH]c3c2F)c(F)c(N)c1Cl [Compound A, cyanomethyl 4-amino-3-chloro-5-fluoro-6-(7-fluoro-1H-indol-6-yl)pyridine-2-carboxylate]","% visual injury, Obs",[1]; 10 g/ha,73% and 70% and 60%
same,"% visual injury, Obs","[1]; BRSNN, Compound A 10 g/ha",60%
same,Obs % visual injury,"[1]; BRSNN, Compound A 10 g/ha",55%
same,Obs % visual injury,"[1]; BRSNN, Compound A 10 g/ha (Table 65)",55%
same,% visual injury,[1]; Compound A 10 g/ha,65%
same,% visual injury Obs,[1]; Compound A 10 g/ha,60%
same,"% visual injury, Obs",[1]; Compound A 10 g/ha,55%
same,BRSNN % visual injury Obs,[1]; Compound A 10 g/ha (Examples 62-63),55%
same,"% visual injury, Obs",[1]; [14],78%
same,BRSNN % visual injury Obs,[1]; [14],78%
same,% visual injury,[2]; Compound A 10 g/ha,0%
same,% visual injury,[2]; Compound A 15 g/ha,0%
same,% visual injury,[3]; Compound A 10 g/ha,0%
same,% visual injury,[3]; Compound A 15 g/ha,0%
same,"% visual injury, Obs",[4]; [14],20%
same,RUMOB % visual injury Obs,[4]; [14],20%
same,% visual injury Obs,[5],68%
same,% visual injury,[6]; Compound A 10 g/ha,89%
same,"% visual injury, Obs",[6]; [14],98%
same,HELAN % visual injury Obs,[6]; [14],98%
same,% visual injury,[7],0%
same,"% visual injury, Obs",[7]; safener mefenpyr-diethyl,10%
same,SORVU % visual injury Obs,[7]; safener mefenpyr-diethyl,10%
same,% visual injury,[8]; Compound A 10 g/ha,25%
same,"% visual injury, Obs",[8]; [14],5%
same,IPOHE % visual injury Obs,[8]; [14],5%
same,"% visual injury, Obs",[9]; 10 g/ha,0%
same,"% visual injury, Obs",[9]; [14],10%
same,DIGSA % visual injury Obs,[9]; [14],10%
same,"% visual injury, Obs",[10]; [14],95%
same,GLXMA % visual injury Obs,[10]; [14],95%
same,"% visual injury, Obs",[11]; 10 g/ha,48%
same,"% visual injury, Obs",[11]; [14],73%
same,ABUTH % visual injury Obs,[11]; [14],73%
same,"% visual injury, Obs",[12],5%
same,ZEAMX % visual injury Obs,[12],5%
same,"% visual injury, Obs",[13],5%
same,ORYSA % visual injury Obs,[13],5%
"C#CCOC(=O)c1nc(-c2ccc3cc[nH]c3c2F)c(F)c(N)c1Cl [Compound B, propargyl 4-amino-3-chloro-5-fluoro-6-(7-fluoro-1H-indol-6-yl)pyridine-2-carboxylate]","% visual injury, Obs",[4]; 10 g/ha,15%
same,Obs % visual injury,[4]; Compound B 5 g/ha,23%
same,Obs % visual injury,[4]; Compound B 10 g/ha,18%
same,"% visual injury, Obs",[6]; 10 g/ha,100%
same,"% visual injury, Obs",[8]; 10 g/ha,0%
same,Obs % visual injury,[9]; Compound B 5 g/ha,50%
same,Obs % visual injury,[9]; Compound B 10 g/ha,63%
same,"% visual injury, Obs",[10]; 10 g/ha,73%
same,"% visual injury, Obs",[11]; 10 g/ha,68%
"COc1ncc(F)c2nc(S(=O)(=O)Nc3c(F)cccc3F)nn12 [Florasulam, florasulam]",% visual injury,[2]; Florasulam 5 g/ha,0%
same,% visual injury,[3]; Florasulam 5 g/ha,0%
